Measured values reported in patent publication US20220089602A1, “COMPOUNDS THAT INDUCE FERROPTIC CELL DEATH” (The Board of Trustees of the University of Illinois, priority 2019, published 2022).

Columns and labels:
[1] = test system: primary cancer cells from patients with metastatic cancers; experiment: 72 hr cell viability Alamar Blue assay in primary patient-derived cells; format: cell-based, human; conditions: versus cisplatin, 5-FU, etoposide, PAC-1
Protocol: Cells were grown at 37° C. under a humidified 5% CO2 atmosphere, in a culture medium consisting of high-glucose (Life Technology) DMEM media for Mia PaCa-2, D54, U87, K7-M2, SK-MEL-5, and 3LL cells or RPMI 1640 for ES-2, HCT 116, MDA-MB-231, A549, T47D, B16-F10, and BT-549 cells or McCoy's 5A media for HT29 cells. All media were supplemented with 10% FBS (Gemini), penicillin (50 IU/ml), streptomycin (50 μg/ml) and glutamine (2 mM) (Cellgro). Primary cells were isolated from pleural effusions of metastatic patients at Carle Foundation Hospital (IRB #15149) following a protocol as described previously (Med. Sci. 2, 70-81, (2014)).
To a 384-well plate, 40 μL of 1.25× compound dilution or 1.25% DMSO-containing media was added (final volume of 1% DMSO). Concentrations of compounds tested were 100 μM to 100 nM. On each plate at least 3 technical replicates per compound were performed. Next, 10 μL of a 100,000 cells/mL suspension was added to each well, yielding a final concentration of 1,000 cells/well. To three wells in column 2 was added 1 μL of 10 mM doxorubicin (final concentration of 200 μM) as positive control of cell death. Plates were sealed with gas-permeable seals and incubated at 37° C. for 72 h. […] Fluorescence was read on a Molecular Devices SpectraMax 3 (excitation=555 nm, emission=585 nm, emission cutoff=570 nm). […]

red blood cells = experiment: Hemolysis assay; format: cell-based, human; conditions: 2 hr treatment with 333 μM
Protocol: Whole human blood in citrate phosphate dextrose was obtained from Bioreclamation LLC, stored at 4° C. and used before expiration date. 100 μL of whole blood was combined with 500 μL saline (0.9% NaCl) and centrifuged for 5 min at 300×g. The supernatant was carefully removed from the erythrocyte pellet and the liquid was discarded. Washed pellet 3× in 500 μL saline. The erythrocyte pellet was resuspended in 800 μL of Red Blood Cell Buffer (10 mM Na2HPO4, 150 mM NaCl, 1 mM MgCl2, pH 7.4). To a 0.5 mL eppendorf tube or a PCR plate was added 1.0 μL of 30× compound in DMSO and 19 μL RBC Buffer. For negative controls, 1.0 μL DMSO was combined with 19 μL RBC buffer. For positive controls, either 20 μL MilliQ H2O or 1.0 μL 30% Triton X-100 were combined with 19 μL RBC Buffer. Tubes or plates were briefly centrifuged. Next, 10 μL of washed erythrocyte suspension was added to each tube, then sealed. After incubation at 37° C. for 2 h, samples were centrifuged for 5 min at 300×g, and 20 μL of supernatant was carefully removed and transferred to wells of a clear flat-bottomed 384-well plate. Absorbance was measured at 540 nm. The data were plotted as compound concentration versus percent hemolysis, and fitted to OriginPro (OriginLab, Northampton, Mass.).

HT-29 cells = experiment: RNA sequencing of treated cells; format: cell-based; conditions: 10 μM, 6 hr
Protocol: Total RNA was extracted by RNeasy Kit (QIAGEN) and digested with DNase (QIAGEN) from n=2 samples per condition (DMSO, 10 μM ferroptocide cells treated for 6 hr). RNA quality was assessed with a 2100 Agilent Bioanalyzer prior to library preparation. The RNAseq libraries were prepared using the TruSeq Stranded mRNAseq Sample Prep kit (version 1) following manufacturer's instruction (Illumina). Libraries were then quantified, pooled, and sequenced by single-end 150 base pairs using the Illumina HiSeq 4000 platform at the Roy J. Carver Biotechnology center. FASTQ files were generated and demultiplexed with the bcl2FASTQ v2.17.1.14 Conversion Software (Illumina). Libraries were sequenced at an average depth of 40-50 million reads per sample. Trimmomatic (v0.36) was utilized to remove sequencing adapters, low-quality bases (PHRED score <28), and reads less than 30 bases in length. Pseudo-alignment and transcript-level counting to NCBI's GRCh38.p11 transcriptome was then performed with Salmon (v 0.8.2) in quasi-mapping mode while correcting for sequence-specific and GC biases, and generating 30 bootstraps. Counts summarized to the gene level (NCBI annotation release 108) using tximport (v 1.6.0) and the “lengthScaledTPM” method. The counts were normalized using the TMM method from edgeR (v 3.20.5) and then transformed to log 2 counts per million (log CPM) with prior.count=3. Genes without at least log CPM>log 2(0.5) in at least 3 samples were filtered out, leaving 16,743 genes for differential expression testing. TMM normalization was re-done after filtering and then limma's (v 3.34.5) voom method was used to find differentially expressed genes for the pairwise comparisons of treatment vs. control in A549, and treatment vs. control in HT29 (batch 2 and 3, 8 samples total, 6 hr), and the interaction between treatment and cell line. P values were adjusted for multiple hypothesis testing with the Benjamini-Hochberg method to generate false discovery rates. Gene set enrichment analysis was done using ESGEA (v 1.6.1) for the Gene Ontology BP, CC and MF gene sets, KEGG pathway gene sets, and Pathway gene sets. The RNA sequencing data have been deposited to the GEO repository with the accession number GSE126868.

4T1 cells = experiment: Cellular lipid ROS production (C11-BODIPY); format: cell-based, murine; conditions: 10 μM
Protocol: ES-2, HCT 116, and 4T1 cells (1×10^5 cells/mL) were plated in 12-well plates. Cells were pre-treated for 2 hr with 100 μM deferoxamine followed by treatment with DMSO, 10 μM ferroptocide, 10 μM RSL3, or 100 μM TBHP for 1 hr, 1.5 hr and 2 hr respectively. Cells were washed with HBSS and incubated in the dark for 20 min with 5 μM C11-BODIPY probe. Cells were then washed 2× with HBSS and harvested at 1000×g, 3 min. After resuspension in 500 μl HBSS buffer, samples were analyzed with flow cytometry to record ten thousand events per sample in FL1 channel in BD LSR II Flow Cytometer (BD Bioscience). FCS express V6 De Novo software was used to generate histograms.

Q: Which results are given for `C[C@@H]1CC[C@@]23C[C@H](O)C(=O)[C@@]2(O)[C@]1(C)[C@H](OC(=O)CCl)C[C@@H](C1=CCn2c(=O)n(-c4ccccc4)c(=O)n2C1)[C@@H]3C` [Compound P18, ferroptocide]?
A: killing of primary cancer cells versus chemotherapeutics [1]: kills these cancer cells better than approved and experimental chemotherapeutics; hemolytic activity (red blood cells; listed as Ferroptocide): no hemolytic activity; hemolytic activity (red blood cells; listed as ferroptocide): Lack of hemolytic activity; genes involved in ferroptosis modulated (HT-29 cells; FDR ≤0.05): 35/40; ATF3 upregulation (RNA-seq) (HT-29 cells; HT-29): 11.5 fold; CHAC1 upregulation (RNA-seq) (HT-29 cells; HT-29): 9.8 fold; DDIT3 upregulation (RNA-seq) (HT-29 cells; HT-29): 22.5 fold; DDIT4 upregulation (RNA-seq) (HT-29 cells; HT-29): 11.3 fold; GCLC upregulation (RNA-seq) (HT-29 cells; HT-29): 3.5 fold; GCLM upregulation (RNA-seq) (HT-29 cells; HT-29): 4.9 fold; SLC7A11 upregulation (RNA-seq) (HT-29 cells; HT-29): 8.1 fold; lipid ROS (4T1 cells): induces lipid ROS
